Legend:
[1] = Absorbance spectrometry; assay type: physicochemical
Description: (§1) Absorbance spectrometry was performed with a 1-cm path length quartz cuvette in a USB2000 fiber-optic spectrometer (Ocean Optics, Dunedin, Fla.). Fluorescence spectrometry was performed with a 1-cm path length, 1.5 mL disposable methacrylate cuvette (Fisher Scientific, Hampton, N.H.) in a HR2000 fiber-optic spectrometer, and CUV-ALL-UV four-way cuvette holder (Ocean Optics), using a 655 nm laser diode light source (OPCOM O.E. Inc., Xiamen, China) with maximum output less than 5 mW. Data acquisition was performed with a computer using an OOI-Base32 spectrometer operating software package (Ocean Optics). The spectral range of the USB2000-FL spectrometer was from 350 to 1000 nm with spectral resolution of 7.6 nm, and that of the HR2000 spectrometer was from 200 to 1100 nm with a spectral resolution of 6.7 nm.

[2] = Fluorescence spectrometry and fluorescence quantum yield; assay type: physicochemical
Description: as §1
Fluorescence intensity was measured in each solvent (PBS, FBS, and methanol) at each concentration of the dye to determine the effect of the methylene blue concentration and solvents on total fluorescence yield. Fluorescence quantum yields of methylene blue in PBS, FBS, and methanol were calculated using oxazine725 in ethylene glycol (quantum yield: 19%) as a calibration standard, under the conditions of matched absorbance of methylene blue in each solvent.

[3] = Environment-, concentration- and pH-dependence of MB fluorescence; assay type: physicochemical
Description: For the experiment shown in FIG. 1A, pure methylene blue powder was dissolved in phosphate-buffered saline (pH 7.4), 100% fetal bovine serum, or absolute methanol, at the concentration shown, and fluorescence intensity (arbitrary values) measured.
For this experiment, pure methylene blue powder was dissolved in PBS, FBS, or methanol, at the concentrations shown in FIGS. 1A-C, the spectrum of its absorbance and fluorescence emission obtained, and the peak of each identified.
Finally, the pH dependence of MB was examined, by dissolving MB in PBS (pH 6), Ascorbic Acid, HCl, and a NaHCO3-buffered solution. […] This is an important consideration because intermolecular quenching and internal absorption often limit the usable dose range of fluorescent contrast agents.

[4] = tested on: coronary arteries and myocardium; experiment: Angiographic and myocardial perfusion imaging in rats; assay type: in vivo
Description: (§2) Male Sprague-Dawley, 300 g rats obtained from Charles River Laboratories (Wilmington, Mass.) were anesthetized with 65 mg/kg IP pentobarbital. 30 kg adult female Yorkshire pigs (E.M. Parsons & Sons, Hadley, Mass.) were induced with 4.4 mg/kg intramuscular Terazol (Fort Dodge Labs, Fort Dodge, Iowa). Pigs were intubated and maintained with 1.5-2% isoflurane.
(§3) In anesthetized rats, 0.1, 0.5 and 1 mg/kg MB were injected intravenously, and then images were taken during 15 min after injection. Signal to background ratio (SBR) (the signal of left anterior descending branch of coronary artery (LAD) relative to that of chest wall, and the signal of myocardium relative to that of chest wall) was quantified using the same region of interest (ROI) through entire observation. In anesthetized pigs, 100 μL/kg of 0.5% methylene blue (1.6 μmol/kg) was injected intravenously and then the hearts were observed using the imaging system described herein. For multi-wavelength fluorescence imaging, 0.25 ml of 100 μM ICG (75 nmol/kg) was injected intravenously in rats and 0.06 mg/kg ICG (75 nmol/kg) in pigs.
The system was adjusted to account for the optical properties of methylene blue. Briefly, the light source of the original system is composed of a white light source and a near-infrared light source. The surgical field is illuminated with both lights, and its excitation fluence rate is 5 mW/cm^2. White light and near-infrared images were able to be captured separately using a dichroic filter cube set, and these images could be merged. Images were captured and refreshed 15 times a second.
The system was modified in 3 ways for use with MB. First, the white lights were filtered with HQ675SP (Chroma Technology, Brattleboro, Vt.). Second, 4 pairs of 400 mA, 660 nm LEDs were added and filtered with HQ650/45X (chroma.) instead of the near-infrared light source. Excitation fluence rate with this new light source is 1 mW/cm^2. Third, the dichroic filter and emission filter were changed to 680 dcxr (chroma.), HQ700/35 (chroma.), respectively.

[5] = tested on: coronary arteries and myocardium; experiment: Angiographic and myocardial perfusion imaging in pigs; assay type: in vivo
Description: as §2, §3
The system was adjusted to account for the optical properties of methylene blue. Briefly, the light source of the original system is composed of a white light source and a near-infrared light source. The surgical field is illuminated with both lights, and its excitation fluence rate is 5 mW/cm^2. […]

[6] = tested on: common bile duct; experiment: Cholangiographic imaging with methylene blue in rats; assay type: in vivo; conditions: 1 mg/kg iv
Description: In anesthetized rats, 100 μL/kg of 1% MB (1 mg/kg) was injected intravenously via penile vein. A simultaneous color video/NIR fluorescence intraoperative imaging system was employed for quantification of fluorescence images. For multi-wavelength fluorescence imaging, 0.25 ml of 100 uM ICG (75 nmol/kg) was injected intravenously in rat and hepatic arteriography and portography can be seen.

[7] = tested on: common bile duct; experiment: Cholangiographic imaging with methylene blue in pigs; assay type: in vivo
Description: In anesthetized pigs, bile duct was visualized by intravenous injection of 100 μL/kg of 1% MB, or direct cannulation into the common bile duct for injection of 50 μM of MB. Fluorescence intensities of bile duct, liver (right lobe), and abdominal wall were measured at 3, 5, 10, 20, and 30 minutes following injection. For hepatic arteriography and portography, 0.06 mg/kg ICG (75 nmol/kg) is injected intravenously.

[8] = tested on: thoracic duct; experiment: Thoracic duct mapping in pigs; assay type: in vivo; conditions: 5 mL of 1% into inguinal lymph node
Description: In anesthetized pigs, 5 mL of 1% methylene blue was injected into an inguinal lymph node, then the thoracic duct was observed.

[9] = tested on: ureter; experiment: Ureteral mapping with methylene blue in pigs; assay type: in vivo; conditions: preclinical studies, in some cases
Description: In anesthetized 3 pigs, 1 mg/kg of methylene blue was injected intravenously and then the abdomen was opened surgically and ureter was identified by imaging. For pelvic arteriography, 0.06 mg/kg ICG (75 nmol/kg) was injected intravenously.

[10] = tested on: common bile duct, vasculature, coronary artery, myocardium; experiment: Multi-wavelength fluorescence imaging with MB and ICG; assay type: in vivo, pigs; conditions: pig, ICG 800 nm, MB 700 nm
Description: Therefore, MB was used to visualize CBD in an anesthetized pig, while ICG was used to visualize vasculature.
To evaluate the possibility of multi-wavelength fluorescent imaging, ICG and methylene blue were used.
1 mg/kg methylene blue IV injection was followed 30 min after by 0.03 mg/kg ICG IV injection. […] NIR camera exposure time was 100 msec.
Next, one of the diagonal branches of the coronary artery (D2) was clamped (white arrow), and then 1 mg/kg of methylene blue was injected intravenously; see the second row of images. Just after releasing the clamp, 0.03 mg/kg ICG was injected intravenously. […] The right-most image in the second row was created by merging the image of the coronary arteriography using methylene blue at clamping D2 and the image using ICG after declamping D2.

[11] = tested on: parathyroid gland; experiment: Parathyroid gland imaging using methylene blue; assay type: in vivo; conditions: 2 mg/kg over 15 minutes, along with NaHCO3
Description: To determine whether MB fluorescence emissions could be used to image the parathyroid gland, 2 mg/kg MB was administered over 15 minutes, along with NaHCO3, prior to surgery.

[12] = clinical use; cited from earlier work

**Q.** Which “Excitation Wavelength Maximum, (FBS)” value ([1]; in FBS) does the source give for `CN(C)c1ccc2nc3ccc(=[N+](C)C)cc-3sc2c1` [Methylene Blue, methylene blue] here?
**A.** The value was 666 nm.

**Q.** And the “Molar Extinction Coefficient, (FBS)” value ([1]; in FBS)?
**A.** Its value is 86500 M⁻¹ cm⁻¹.

**Q.** And the “Excitation Wavelength Maximum, PBS” value ([1]; in PBS)?
**A.** The value was 665 nm.

**Q.** What about the “Molar Extinction Coefficient, PBS” value ([1]; in PBS) of the same compound?
**A.** The value was 71500 M⁻¹ cm⁻¹.

**Q.** And the “Excitation Wavelength Maximum, [MtOH]” value ([1]; in methanol)?
**A.** Its value is “[653] nm”.

**Q.** What about the “Molar Extinction Coefficient, [MtOH]” value ([1]; in methanol) of the same compound?
**A.** Its value is “[71500] M^−1cm^−1”.

**Q.** And the “Emission Wavelength Maximum, (FBS)” value ([2]; in FBS)?
**A.** Its value is 685 (685) nm.

**Q.** What about the “Fluorescence Quantum Yield, (FBS)” value ([2]; in FBS) of the same compound?
**A.** The value was 2.5%.

**Q.** What about the “Emission Wavelength Maximum, PBS” value ([2]; in PBS) of the same compound?
**A.** Its value is 685 (685) nm.

**Q.** What about the “Fluorescence Quantum Yield, PBS” value ([2]; in PBS) of the same compound?
**A.** The value was 5.5%.

**Q.** What about the “Emission Wavelength Maximum, [MtOH]” value ([2]; in methanol) of the same compound?
**A.** Its value is “[681] nm”.

**Q.** And the “Fluorescence Quantum Yield, [MtOH]” value ([2]; in methanol)?
**A.** The value was “[9.5] %”.

**Q.** What about the “emission wavelength of MB” value ([2]; peak shifts as a function of dye concentration, listed as MB) of the same compound?
**A.** Its value is 690-700 nm.

**Q.** What about the “fluorescence in acidic solutions” value ([3]; Ascorbic Acid, HCl) of the same compound?
**A.** Its value is “essentially no fluorescence”.

**Q.** What about the “fluorescence at the more basic pH” value ([3]; PBS (pH 6), NaHCO3-buffered solution) of the same compound?
**A.** Its value is “significant fluorescence”.

**Q.** What about the “pH favoring the fluorescent methylene blue form” value ([3]; equilibrium with leucomethylene blue) of the same compound?
**A.** Its value is ≥ 6.

**Q.** What about the “concentration of peak fluorescence intensity” value ([3]; intermediate concentrations) of the same compound?
**A.** Its value is 4 to 50 µM.

**Q.** What about the “detection of peripheral branches and coronary vein” value [4] of the same compound?
**A.** The value was “not detectable”.

**Q.** And the “intravascular (arterial) signals” value ([4]; 0.1 mg/kg intravenously)?
**A.** Its value is “not detected”.

**Q.** And the “detection of coronary arteries” value ([4]; 0.5 and 1.0 mg/kg intravenously)?
**A.** Its value is “could be detected”.

**Q.** What about the “homogenous signal from the heart wall” value ([4]; all loading doses) of the same compound?
**A.** The value was “detectable”.

**Q.** And the “signal of myocardium distal to occlusion vs well-perfused myocardium” value ([5]; ligation of diagonal branch of left anterior descending artery)?
**A.** The value was “five-fold lower signal”.

**Q.** And the “average SBR of whole heart wall fluorescence” value ([5]; pig, intravenous injection via external jugular vein)?
**A.** The value was “about 1.5”.

**Q.** And the “dye stacking in the liver” value [6]?
**A.** Its value is “No dye stacking in the liver was observed”.

**Q.** What about the “time of maximal ratio of CBD intensity relative to pancreas and liver” value [6] of the same compound?
**A.** The value was “around 10 minutes”.

**Q.** What about the “time ratio of CBD intensity stayed steady after injection” value [6] of the same compound?
**A.** Its value is “at least 30 minutes”.

**Q.** And the “time until CBD detectable after intravenous injection” value [6]?
**A.** The value was 2 to 3 min.

**Q.** And the “CBD visualization after direct retrograde administration” value ([7]; direct cannulation into CBD)?
**A.** The value was “successfully visualized the CBD”.

**Q.** What about the “identification of intrahepatic bile duct by fluorescence” value ([7]; during hepatic dissection) of the same compound?
**A.** Its value is “not identifiable”.

**Q.** What about the “detection of common bile duct” value ([7]; intravenous) of the same compound?
**A.** The value was “detectable”.

**Q.** What about the “thoracic duct in the color image” value [8] of the same compound?
**A.** The value was “very faint blue color”.

**Q.** And the “thoracic duct in the fluorescence image” value [8]?
**A.** Its value is “clearly visualized in the fluorescence image”.

**Q.** What about the “performance in the ureter” value [9] of the same compound?
**A.** Its value is “less than optimal performance”.

**Q.** What about the “structure shown in two-channel NIR imaging” value [10] of the same compound?
**A.** The value was “shows the CBD”.

**Q.** What about the “visibility of the parathyroid” value [11] of the same compound?
**A.** Its value is “visible”.

**Q.** And the “dose that sometimes causes severe adverse reactions (methemoglobinaemia or anaphylaxis)” value [12]?
**A.** Its value is 7.5 mg/kg.
